“Also recorded” adds a separate entry of the source.
How the values were obtained:
microorganisms [1] = experiment: Peptide activities: targeting/binding, antimicrobial, growth or phenotype altering (Tables 7, 8); type: cell-based; details: peptides having multiple activities
microorganisms [2] = experiment: Targeting peptide binding to target microorganisms (Tables 3, 10, 12); details: microorganism(s) the targeting peptide binds; binding in aqueous buffers varied with peptide solubility, preferably 1x PBS
microorganisms [3] = experiment: Morphology, biofilm and growth disrupting peptides (Table 5); type: cell-based; design: key: A: Peptide aggregates; B: Less hyphal formation; Clumps; Diffuse clumps and small polyps; F: Diffuse growth; H: Thin; I: Growth inhibition; Microcolony formation; Rippled; Small polyps; Thick; W: Halo formation on top, microlonies on bottom
From the text: In certain embodiments peptides that induce alterations in phenotype or other biological activities can also be used as antimicrobial effector moieties.

Substance	Activities (microorganisms [1])	Target(s) (microorganisms [2])	Organism, effect (microorganisms [3]; C. albicans)	Organism, effect (microorganisms [3]; C. jejuni)	Organism, effect (microorganisms [3]; E. coli)	Organism, effect (microorganisms [3]; E. faecalis)	Organism, effect (microorganisms [3]; MRSA)	Organism, effect (microorganisms [3]; S. epidermidis)	Organism, effect (microorganisms [3]; S. pneumoniae)
PF-426: peptide having multiple activities (chain 1 MLQKYTQMISVTKCIITKNKKTQENVDAYN; chain 2 MLQKYTQMISVTKCIITKNKKTQENVDAYN; Peptide with targeting and/or antimicrobial activity)	G B	S. epidermidis and E. coli and P. aeruginosa and C. albicans and MRSA and S. pneumoniae and E. faecalis and C. jeikeium	C. albicans (A)	C. jejuni (D)	E. coli (C)	E. faecalis (D)	MRSA (D)	S. epidermidis (D)	S. pneumoniae (D)
PF-427: peptide having multiple activities (chain 1 YVLEYHGLRATQDVDAFMAL; chain 2 YVLEYHGLRATQDVDAFMAL; Peptide with targeting and/or antimicrobial activity)	G B	M. luteus; also recorded: P. aeruginosa; also recorded: C. albicans; also recorded: C. jejuni			E. coli (C)	E. faecalis (C)	MRSA (C)		S. pneumoniae (R)
PF-428: peptide having multiple activities (chain 1 ENEESIF; chain 2 ENEESIF; Peptide with targeting and/or antimicrobial activity)	G B	S. epidermidis; also recorded: C. albicans; also recorded: E. faecalis; also recorded: C. jeikeium							S. pneumoniae (H)
PF-429: peptide having multiple activities (chain 1 AATLICVGSGIMSSL; chain 2 AATLICVGSGIMSSL; Peptide with targeting and/or antimicrobial activity)	G B	S. epidermidis; also recorded: S. pneumoniae; also recorded: C. jeikeium				E. faecalis (C)	MRSA (C)	S. epidermidis (C)	S. pneumoniae (M)
PF-430: peptide having multiple activities (chain 1 AVVCGYLAYTATS; chain 2 AVVCGYLAYTATS; Peptide with targeting and/or antimicrobial activity)	G B	S. epidermidis; also recorded: M. luteus; also recorded: E. coli; also recorded: S. pneumoniae; also recorded: E. faecalis; also recorded: C. jeikeium; also recorded: C. jejuni					MRSA (M)	S. epidermidis (M)	S. pneumoniae (M)
PF-433: peptide having multiple activities (chain 1 MRKEFHNVLSSGQLLADKRPARDYNRK; chain 2 MRKEFHNVLSSGQLLADKRPARDYNRK; Peptide with targeting and/or antimicrobial activity)	G B	S. epidermidis; also recorded: E. coli; also recorded: S. pneumoniae; also recorded: C. jeikeium							S. pneumoniae (H)
PF-434: peptide having multiple activities (chain 1 GQLLADKRPARDYNRK; chain 2 GQLLADKRPARDYNRK; Peptide with targeting and/or antimicrobial activity)	G B	S. epidermidis; also recorded: M. luteus; also recorded: S. pneumoniae; also recorded: C. jeikeium							S. pneumoniae (S)
PF-444: peptide having multiple activities (MAAKLWEEGKMVYASSASMTKRLKLAMSKV; Peptide with targeting and/or antimicrobial activity)	G B	M. luteus; also recorded: C. albicans; also recorded: S. pneumoniae; also recorded: C. jeikeium			E. coli (R)	E. faecalis (C)	MRSA (C)	S. epidermidis (C)	S. pneumoniae (R)

Source: patent US20110039763A1, “TARGETED ANTIMICROBIAL MOIETIES” (C3 JIAN, INC., priority 2009, published 2011)
